Here are results for nine molecules from patent US20240148821A1, “PHARMACEUTICAL USE OF CYCLIC PEPTIDE COMPOUND” (CHUGAI SEIYAKU KABUSHIKI KAISHA, priority 2021, published 2024).

Structures are written as SMILES. Bridge positions count the residues as written; N and C are the ends. Square brackets hold non-standard residues; d marks the D form. Peptide text beside a SMILES is read from it. * marks the point of attachment. hPhe(3,5-F2-4-CF3) = N[C@@H](CCc1cc(F)c(C(F)(F)F)c(F)c1)C(=O)O; hPhe(3-Cl-4-CF3) = N[C@@H](CCc1ccc(C(F)(F)F)c(Cl)c1)C(=O)O; hPhe(3-F,4-CF3) = N[C@@H](CCc1ccc(C(F)(F)F)c(F)c1)C(=O)O; NMePhe(4-CF3) = CN[C@@H](Cc1ccc(C(F)(F)F)cc1)C(=O)O; NMeAbu(4,4,4-F3) = CN[C@@H](CC(F)(F)F)C(=O)O; NMePhe(4-Me) = CN[C@@H](Cc1ccc(C)cc1)C(=O)O; NMePhe(4-F) = CN[C@@H](Cc1ccc(F)cc1)C(=O)O; NMeGly(cPent) = CN[C@H](C(=O)O)C1CCCC1; Phe(3-I) = N[C@@H](Cc1cccc(I)c1)C(=O)O; Pro(4,4-F2) = O=C(O)[C@@H]1CC(F)(F)CN1; NMe3Pal = CN[C@@H](Cc1cccnc1)C(=O)O; NMeCha = CN[C@@H](CC1CCCCC1)C(=O)O; NMeChg = CN[C@H](C(=O)O)C1CCCCC1; NMeD = CN[C@@H](CC(=O)O)C(=O)O; NMeL = CN[C@@H](CC(C)C)C(=O)O; NMeNva = CCC[C@H](NC)C(=O)O; NMeV = CN[C@H](C(=O)O)C(C)C; d(β3hA) = C[C@@H](N)CC(=O)O; NMeS = CN[C@@H](CO)C(=O)O; NMeA = CN[C@@H](C)C(=O)O; NMeAib = CNC(C)(C)C(=O)O; Piperidide = C1CCN(*)CC1; Pra = C#CC[C@H](N)C(=O)O; Pyrrolidide = C1CCN(*)C1; Ac5c = NC1(C(=O)O)CCCC1; Aze = O=C(O)[C@@H]1CCN1; CH2CMe2OH = CC(C)(O)C*; Aib = CC(C)(N)C(=O)O; Isopentyl = CC(C)CC*; Sar = CNCC(=O)O A value given as a limit tells only on which side of the number the result lay.

The test system of this assay is Human pancreatic cancer cell line AsPC-1 (G12D mutation Kras). Nature of the assay: AsPC-1 cell growth inhibition (AsPC-1 CGI). The format is cell-based. Particulars: read-out: AsPC-1 cell growth inhibition, 50% growth inhibitory concentration (IC50 value); 96 hours, CellTiter-Glo, values classified in ranges.
Procedure: Test compounds were serially dilated with dimethyl sulfoxide, and 200 nL was then dispensed to a U-bottom 96-well plate using Labcyte Echo. […] The cell suspension was dispensed to a. plate containing a test compound at 100 μL per well and incubated at 37° C. in a 5% carbon dioxide gas incubator. 96 hours later, 80 μL of CellTiter-Glo (Promega) was added to each well and fluorescence was measured.
In the case of `CCC[C@H]1C(=O)N[C@@H]([C@@H](C)CC)C(=O)N(C)[C@@H](C)C(=O)N2CC[C@H]2C(=O)N(C)[C@@H](CC2CCCCC2)C(=O)N(C)CC(=O)N[C@@H](CCc2ccc(C(F)(F)F)c(Cl)c2)C(=O)N2CCC[C@H]2C(=O)NC2(CCCC2)C(=O)N(C)[C@@H](C2CCCC2)C(=O)N(C)[C@H](C(=O)N2CCCCC2)CC(=O)N1C` [Compound 391] ([NMeNva]I[NMeA][Aze][NMeCha][Sar][hPhe(3-Cl-4-CF3)]P[Ac5c][NMeGly(cPent)][NMeD]-Piperidide; lactam N-11), the IC50 was not above 20 nM.
To `CC[C@H](C)[C@@H]1NC(=O)[C@H](CC(C)C)N(C)C(=O)C[C@@H](C(=O)N2CCCCC2)N(C)C(=O)[C@H](CC(C)C)N(C)C(=O)C(C)(C)NC(=O)[C@H](COCC(C)(C)O)N(C)C(=O)[C@H](CCc2ccc(C(F)(F)F)c(F)c2)NC(=O)CN(C)C(=O)[C@H](COCCC(C)C)N(C)C(=O)CN(C)C(=O)CN(C)C1=O` [Compound 1532] ([NMeL]I[Sar][Sar][NMeS](Isopentyl)[Sar][hPhe(3-F,4-CF3)][NMeS](CH2CMe2OH)[Aib][NMeL][NMeD]-Piperidide; lactam N-11) belongs more than 500 nM; to `C#CC[C@@H]1NC(=O)[C@H](Cc2cccc(I)c2)NC(=O)CN(C)C(=O)[C@H](Cc2ccc(F)cc2)N(C)C(=O)CN(C)C(=O)CN(C)C(=O)[C@H]([C@@H](C)CC)NC(=O)[C@H](CC(C)C)N(C)C(=O)C[C@@H](C(=O)N2CCCCC2)N(C)C(=O)[C@H](CC(C)C)NC(=O)C(C)(C)N(C)C1=O` [Compound 1327] ([NMeL]I[Sar][Sar][NMePhe(4-F)][Sar][Phe(3-I)][Pra][NMeAib]L[NMeD]-Piperidide; lactam N-11), more than 500 nM.
Under `CC[C@H](C)[C@@H]1NC(=O)[C@H](CC(C)C)N(C)C(=O)C[C@@H](C(=O)N2CCCCC2)N(C)C(=O)[C@H](CC(C)C)NC(=O)C(C)(C)N(C)C(=O)[C@H](CC(C)C)NC(=O)[C@H](CCc2ccc(C(F)(F)F)c(F)c2)NC(=O)CN(C)C(=O)[C@H](CC2CCCCC2)N(C)C(=O)CN(C)C(=O)CN(C)C1=O` [Compound 969] ([NMeL]I[Sar][Sar][NMeCha][Sar][hPhe(3-F,4-CF3)]L[NMeAib]L[NMeD]-Piperidide; lactam N-11) stands more than 500 nM.
As to `CC[C@H](C)[C@@H]1NC(=O)[C@H](CC(F)(F)F)N(C)C(=O)C[C@@H](C(=O)N2CCCC2)N(C)C(=O)[C@H](C2CCCCC2)N(C)C(=O)C2(CCCC2)NC(=O)[C@@H]2CC(F)(F)CN2C(=O)[C@H](CCc2cc(F)c(C(F)(F)F)c(F)c2)NC(=O)CN(C)C(=O)[C@H](Cc2ccc(C(F)(F)F)cc2)N(C)C(=O)CN(C)C(=O)CN(C)C1=O` [Compound 1303] ([NMeAbu(4,4,4-F3)]I[Sar][Sar][NMePhe(4-CF3)][Sar][hPhe(3,5-F2-4-CF3)][Pro(4,4-F2)][Ac5c][NMeChg][NMeD]-Pyrrolidide; lactam N-11), the IC50 was not above 20 nM.
As to `CC[C@H](C)[C@@H]1NC(=O)[C@H](CC(C)C)N(C)C(=O)C[C@@H](C(=O)N2CCCCC2)N(C)C(=O)[C@H](CC(C)C)NC(=O)C(C)(C)N(C)C(=O)[C@H](Cc2ccc(OC)cc2)NC(=O)[C@H](Cc2cccc(I)c2)NC(=O)CN(C)C(=O)[C@H](Cc2ccc(C)cc2)N(C)C(=O)[C@@H]2CCN2C(=O)[C@H](C)N(C)C1=O` [Compound 703] ([NMeL]I[NMeA][Aze][NMePhe(4-Me)][Sar][Phe(3-I)]Y(Me)[NMeAib]L[NMeD]-Piperidide; lactam N-11), the IC50 is more than 500 nM.
`CC[C@H](C)[C@@H]1NC(=O)[C@H](C)N(C)C(=O)C[C@@H](C)NC(=O)[C@H](C(C)C)N(C)C(=O)C2(CCCC2)NC(=O)[C@@H]2CCCN2C(=O)[C@H](CCc2ccc(C(F)(F)F)c(Cl)c2)NC(=O)CN(C)C(=O)[C@H](CC2CCCCC2)N(C)C(=O)[C@@H]2CCN2C(=O)[C@H](C)N(C)C1=O` [Compound 1578] (cyclo([Ac5c][NMeV][d(β3hA)][NMeA]I[NMeA][Aze][NMeCha][Sar][hPhe(3-Cl-4-CF3)]P)): the IC50 is more than 500 nM.
Take `CC[C@H](C)[C@@H]1NC(=O)[C@H](C)N(C)C(=O)C[C@@H](C(=O)N2CCCCC2)N(C)C(=O)[C@H](C2CCCCC2)N(C)C(=O)C2(CCCC2)NC(=O)[C@H](Cc2cccnc2)N(C)C(=O)[C@H](CCc2ccc(C(F)(F)F)c(Cl)c2)NC(=O)CN(C)C(=O)[C@H](CC2CCCCC2)N(C)C(=O)[C@@H]2CCCN2C(=O)CN(C)C1=O` [Compound 433] ([NMeA]I[Sar]P[NMeCha][Sar][hPhe(3-Cl-4-CF3)][NMe3Pal][Ac5c][NMeChg][NMeD]-Piperidide; lactam N-11): the IC50 was more than 500 nM.
Take `CC(C)CCOC[C@@H]1NC(=O)[C@H](CC(C)C)N(C)C(=O)C[C@@H](C(=O)N2CCCCC2)N(C)C(=O)[C@H](C2CCCCC2)N(C)C(=O)C2(CCCC2)NC(=O)[C@@H]2CCCN2C(=O)[C@H](CCc2ccc(C(F)(F)F)c(Cl)c2)NC(=O)CN(C)C(=O)[C@H](CC2CCCCC2)N(C)C(=O)CN(C)C(=O)CN(C)C1=O` [Compound 794] ([NMeL]S(Isopentyl)[Sar][Sar][NMeCha][Sar][hPhe(3-Cl-4-CF3)]P[Ac5c][NMeChg][NMeD]-Piperidide; lactam N-11): the IC50 is more than 500 nM.
